Reference: patent US11445724B2, “Insecticidal compounds” (SYNGENTA PARTICIPATIONS AG, priority 2013, dated 2022)

What was measured:
Format in all cases: in vivo
[1] = test system: Plutella xylostella (Diamond back moth); test: Plutella xylostella (Diamond back moth) larval mortality, artificial diet in 24-well MTP; details: 144 h, application rate 200 ppm (concentration in well 18 ppm), L2 larvae, larval mortality after 6 days
[2] = test system: Diabrotica balteata (Corn root worm); test: Diabrotica balteata (Corn root worm) larval mortality, artificial diet in 24-well MTP; details: 120 h, application rate 200 ppm (concentration in well 18 ppm), L2 larvae, larval mortality after 5 days
[3] = test system: Thrips tabaci (Onion thrips); test: Thrips tabaci (Onion thrips) mortality, sprayed sunflower leaf discs; details: foliar, 168 h, 200 ppm spray on sunflower leaf discs, mixed ages, mortality after 7 days
[4] = test system: Spodoptera littoralis (Egyptian cotton leafworm); test: Spodoptera littoralis (Egyptian cotton leafworm) mortality, sprayed cotton leaf discs; details: foliar, 72 h, 200 ppm spray on cotton leaf discs, L1 larvae, mortality 3 DAT
[5] = test system: Myzus persicae (Green peach aphid); test: Myzus persicae (Green peach aphid) mortality, test compounds mixed with Sucrose solution under Parafilm; details: 120 h, 12.5 ppm in Sucrose solution, infested pea seedlings on Parafilm, mortality 5 days after infestation
[6] = test system: Myzus persicae (Green peach aphid); test: Myzus persicae (Green peach aphid) mortality, sprayed sunflower leaf discs; details: foliar, 144 h, 200 ppm spray on sunflower leaf discs, mixed ages, mortality 6 DAT

O=C(Nc1cccc(C(=O)Nc2c(Br)cc(C(F)(C(F)(F)F)C(F)(F)F)cc2OC(F)F)c1F)c1cc(C(F)(F)F)ccc1F [Compound 42]
≥ 80%: pest or weed control at 200 ppm [1] | pest or weed control at 200 ppm [2] | pest or weed control at 200 ppm [3] | pest or weed control at 200 ppm [4]

COc1c(NC(=O)c2cc(Cl)ccc2F)cccc1C(=O)Nc1c(Br)cc(C(F)(C(F)(F)F)C(F)(F)F)cc1OC(F)F [Compound 44]
≥ 80%: pest or weed control at 200 ppm [1] | pest or weed control at 12.5 ppm [5] | pest or weed control at 200 ppm [4]

COc1c(NC(=O)c2ccc(F)c(C(F)(F)F)c2)cccc1C(=O)Nc1c(Br)cc(C(F)(C(F)(F)F)C(F)(F)F)cc1OC(F)F [Compound 52]
≥ 80%: pest or weed control at 200 ppm [1] | pest or weed control at 200 ppm [2] | pest or weed control at 200 ppm [3] | pest or weed control at 200 ppm [6] | pest or weed control at 200 ppm [4]

O=C(Nc1cccc(C(=O)Nc2c(Cl)cc(C(F)(C(F)(F)F)C(F)(F)F)cc2OC(F)F)c1F)c1cc(Cl)ccc1F [Compound 55]
≥ 80%: pest or weed control at 200 ppm [1] | pest or weed control at 200 ppm [2] | pest or weed control at 200 ppm [3] | pest or weed control at 200 ppm [4]

COc1ccccc1C(=O)Nc1cccc(C(=O)Nc2c(Br)cc(C(F)(C(F)(F)F)C(F)(F)F)cc2OC(F)F)c1OC [Compound 58]
≥ 80%: pest or weed control at 200 ppm [1] | pest or weed control at 200 ppm [2] | pest or weed control at 200 ppm [3] | pest or weed control at 200 ppm [4]

COc1c(NC(=O)c2ccccc2C(F)(F)F)cccc1C(=O)Nc1c(Br)cc(C(F)(C(F)(F)F)C(F)(F)F)cc1OC(F)F [Compound 63]
≥ 80%: pest or weed control at 200 ppm [1] | pest or weed control at 200 ppm [2] | pest or weed control at 200 ppm [3] | pest or weed control at 200 ppm [6] | pest or weed control at 200 ppm [4]

COc1c(NC(=O)c2cccc(F)c2F)cccc1C(=O)Nc1c(Br)cc(C(F)(C(F)(F)F)C(F)(F)F)cc1OC(F)F [Compound 69]
≥ 80%: pest or weed control at 200 ppm [1] | pest or weed control at 200 ppm [2] | pest or weed control at 200 ppm [3] | pest or weed control at 200 ppm [6] | pest or weed control at 200 ppm [4]

COc1c(NC(=O)c2cc(C(F)(F)F)ccc2F)cccc1C(=O)Nc1c(Br)cc(C(F)(C(F)(F)F)C(F)(F)F)cc1OC(F)F [Compound 73]
≥ 80%: pest or weed control at 200 ppm [6] | pest or weed control at 200 ppm [4]

O=C(Nc1cccc(C(=O)Nc2c(Cl)cc(C(F)(C(F)(F)F)C(F)(F)F)cc2OC(F)F)c1F)c1cc(C(F)(F)F)ccc1F [Compound 80]
≥ 80%: pest or weed control at 200 ppm [1] | pest or weed control at 200 ppm [2] | pest or weed control at 200 ppm [3] | pest or weed control at 200 ppm [4]

COc1c(NC(=O)c2ccc(C)cc2)cccc1C(=O)Nc1c(Cl)cc(C(F)(C(F)(F)F)C(F)(F)F)cc1OC(F)F [Compound 82]
≥ 80%: pest or weed control at 200 ppm [1] | pest or weed control at 200 ppm [2] | pest or weed control at 200 ppm [3] | pest or weed control at 200 ppm [6] | pest or weed control at 200 ppm [4]

COc1c(NC(=O)c2ccccc2OC(F)(F)F)cccc1C(=O)Nc1c(Cl)cc(C(F)(C(F)(F)F)C(F)(F)F)cc1OC(F)F [Compound 90]
≥ 80%: pest or weed control at 200 ppm [1] | pest or weed control at 200 ppm [2] | pest or weed control at 200 ppm [3] | pest or weed control at 200 ppm [4]

COc1c(NC(=O)c2cccc(F)c2F)cccc1C(=O)Nc1c(Cl)cc(C(F)(C(F)(F)F)C(F)(F)F)cc1OC(F)F [Compound 96]
≥ 80%: pest or weed control at 200 ppm [1] | pest or weed control at 200 ppm [6] | pest or weed control at 200 ppm [4]

CCN(C(=O)c1ccccc1C(F)(F)F)c1cccc(C(=O)Nc2c(Cl)cc(C(F)(C(F)(F)F)C(F)(F)F)cc2OC(F)F)c1F [Compound 121]
≥ 80%: pest or weed control at 200 ppm [1] | pest or weed control at 200 ppm [2] | pest or weed control at 200 ppm [3] | pest or weed control at 200 ppm [4]

CCN(C(=O)c1ccccc1Cl)c1cccc(C(=O)Nc2c(Br)cc(C(F)(C(F)(F)F)C(F)(F)F)cc2OC(F)F)c1OC [Compound 131]
≥ 80%: pest or weed control at 200 ppm [1] | pest or weed control at 200 ppm [2] | pest or weed control at 200 ppm [3] | pest or weed control at 200 ppm [6] | pest or weed control at 200 ppm [4]

CCN(C(=O)c1ccc(C)cc1)c1cccc(C(=O)Nc2c(Br)cc(C(F)(C(F)(F)F)C(F)(F)F)cc2OC(F)F)c1OC [Compound 132]
≥ 80%: pest or weed control at 200 ppm [1] | pest or weed control at 200 ppm [2] | pest or weed control at 200 ppm [3] | pest or weed control at 200 ppm [6] | pest or weed control at 200 ppm [4]

CCN(C(=O)c1cc(Cl)ccc1F)c1cccc(C(=O)Nc2c(Br)cc(C(F)(C(F)(F)F)C(F)(F)F)cc2OC(F)F)c1OC [Compound 134]
≥ 80%: pest or weed control at 200 ppm [1] | pest or weed control at 200 ppm [2] | pest or weed control at 200 ppm [3] | pest or weed control at 200 ppm [4]

CCN(C(=O)c1ccccc1C(F)(F)F)c1cccc(C(=O)Nc2c(Br)cc(C(F)(C(F)(F)F)C(F)(F)F)cc2OC(F)F)c1OC [Compound 140]
≥ 80%: pest or weed control at 200 ppm [1] | pest or weed control at 200 ppm [2] | pest or weed control at 200 ppm [3] | pest or weed control at 200 ppm [6] | pest or weed control at 200 ppm [4]

CCN(C(=O)c1cccc(F)c1F)c1cccc(C(=O)Nc2c(Br)cc(C(F)(C(F)(F)F)C(F)(F)F)cc2OC(F)F)c1OC [Compound 142]
≥ 80%: pest or weed control at 200 ppm [1] | pest or weed control at 200 ppm [2] | pest or weed control at 200 ppm [3] | pest or weed control at 200 ppm [6] | pest or weed control at 200 ppm [4]

CCN(C(=O)c1ccc(F)cc1F)c1cccc(C(=O)Nc2c(Br)cc(C(F)(C(F)(F)F)C(F)(F)F)cc2OC(F)F)c1OC [Compound 143]
≥ 80%: pest or weed control at 200 ppm [1] | pest or weed control at 200 ppm [2] | pest or weed control at 200 ppm [3] | pest or weed control at 200 ppm [6] | pest or weed control at 200 ppm [4]

CCN(C(=O)c1ccccc1F)c1cccc(C(=O)Nc2c(Cl)cc(C(F)(C(F)(F)F)C(F)(F)F)cc2OC(F)F)c1OC [Compound 145]
≥ 80%: pest or weed control at 200 ppm [1] | pest or weed control at 200 ppm [2] | pest or weed control at 200 ppm [3] | pest or weed control at 200 ppm [4]

CCN(C(=O)c1ccccc1Cl)c1cccc(C(=O)Nc2c(Cl)cc(C(F)(C(F)(F)F)C(F)(F)F)cc2OC(F)F)c1OC [Compound 147]
≥ 80%: pest or weed control at 200 ppm [1] | pest or weed control at 200 ppm [2] | pest or weed control at 200 ppm [3] | pest or weed control at 200 ppm [6] | pest or weed control at 200 ppm [4]

CCN(C(=O)c1ccc(C)cc1)c1cccc(C(=O)Nc2c(Cl)cc(C(F)(C(F)(F)F)C(F)(F)F)cc2OC(F)F)c1OC [Compound 149]
≥ 80%: pest or weed control at 200 ppm [1] | pest or weed control at 200 ppm [2] | pest or weed control at 200 ppm [3] | pest or weed control at 200 ppm [6] | pest or weed control at 200 ppm [4]

CCN(C(=O)c1ccc(F)cc1C)c1cccc(C(=O)Nc2c(Cl)cc(C(F)(C(F)(F)F)C(F)(F)F)cc2OC(F)F)c1OC [Compound 150]
≥ 80%: pest or weed control at 200 ppm [1] | pest or weed control at 200 ppm [2] | pest or weed control at 200 ppm [3] | pest or weed control at 200 ppm [4]

CCN(C(=O)c1cc(Cl)ccc1F)c1cccc(C(=O)Nc2c(Cl)cc(C(F)(C(F)(F)F)C(F)(F)F)cc2OC(F)F)c1OC [Compound 151]
≥ 80%: pest or weed control at 200 ppm [1] | pest or weed control at 200 ppm [2] | pest or weed control at 200 ppm [3] | pest or weed control at 200 ppm [4]

CCN(C(=O)c1ccccc1C(F)(F)F)c1cccc(C(=O)Nc2c(Cl)cc(C(F)(C(F)(F)F)C(F)(F)F)cc2OC(F)F)c1OC [Compound 157]
≥ 80%: pest or weed control at 200 ppm [1] | pest or weed control at 200 ppm [2] | pest or weed control at 200 ppm [3] | pest or weed control at 200 ppm [4]

CCN(C(=O)c1ccc(F)c(C(F)(F)F)c1)c1cccc(C(=O)Nc2c(Br)cc(C(F)(C(F)(F)F)C(F)(F)F)cc2OC(F)F)c1OC [Compound 163]
≥ 80%: pest or weed control at 200 ppm [1] | pest or weed control at 200 ppm [2] | pest or weed control at 200 ppm [3]
